# From patent publication US9624288B2, “Engineered receptors and their use” (University of Pittsburgh—Of the Commonwealth System of …, priority 2012, dated 2017)
# Biological target: T1, EGRAFY mutant (R91A, F188Y; SEQ ID NO: 15) (Dickeya chrysanthemi, UniProt P0C7B7, F187Y/INS163G/R91A)
# T1 construct: expressed in transfected cells; host or cells: Xenopus laevis oocytes
# Test: Two-electrode voltage clamp, amine agonist activation of the EGRAFY mutant in oocytes
# Assay type: cell-based, Erwinia chrysanthemi / human
# Procedure: For pH measurements, 10 mM MES was added. […] Non-linear regressions were performed using Prism software (Graphpad). […] (FIG. 2).
compound,measurement,value
CCCN [propylamine],EC50,1900 ± 200 nM
